Reference: ChEMBL document CHEMBL1649088, “Structural optimization of azadipeptide nitriles strongly increases association rates and allows the development of selective cathepsin inhibitors” (J Med Chem, 2011)
Active and inactive are the calls of the source. The rule behind the calls is not given here.

What was measured:
Procathepsin L = Procathepsin L (Homo sapiens, UniProt P07711); assay: Inhibition of human recombinant cathepsin L after 30 mins by spectrophotometric assay
Cathepsin S = Cathepsin S (Homo sapiens, UniProt P25774); assay: Inhibition of human cathepsin S after 30 mins by spectrophotometric assay
Cathepsin K = target: T1, Cathepsin K (Homo sapiens, UniProt P43235); assay: Inhibition of human recombinant cathepsin K after 30 mins by spectrophotometric assay
T1 sequence (P43235 whole entry): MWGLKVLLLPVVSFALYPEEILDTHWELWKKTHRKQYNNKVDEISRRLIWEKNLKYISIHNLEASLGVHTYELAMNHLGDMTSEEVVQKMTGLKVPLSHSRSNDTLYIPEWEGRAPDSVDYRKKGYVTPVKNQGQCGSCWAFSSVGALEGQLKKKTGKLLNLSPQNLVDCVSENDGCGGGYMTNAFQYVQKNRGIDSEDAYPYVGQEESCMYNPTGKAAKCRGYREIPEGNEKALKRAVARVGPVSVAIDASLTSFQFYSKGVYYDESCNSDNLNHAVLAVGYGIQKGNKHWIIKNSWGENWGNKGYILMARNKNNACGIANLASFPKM

Cathepsin B = Cathepsin B (Homo sapiens, UniProt P07858); assay: Inhibition of human recombinant cathepsin B after 30 mins by spectrophotometric assay
Homo sapiens [1] = species on record: Homo sapiens; assay: Selectivity ratio, ratio of Ki for human recombinant cathepsin L to Ki for human recombinant cathepsin K
Homo sapiens [2] = species on record: Homo sapiens; assay: Selectivity ratio, ratio of Ki for human recombinant cathepsin B to Ki for human recombinant cathepsin K
Homo sapiens [3] = species on record: Homo sapiens; assay: Selectivity ratio, ratio of Ki for human cathepsin S to Ki for human recombinant cathepsin K
[4] = target: T2, Cathepsin K (Homo sapiens) (UniProt P43235); assay: Reversible inhibition of human recombinant cathepsin K at 300 nM preincubated for 30 mins by spectrophotometric assay
T2 sequence (whole entry): T1 sequence (P43235 whole entry)

Procathepsin L, sequence (P07711 whole entry): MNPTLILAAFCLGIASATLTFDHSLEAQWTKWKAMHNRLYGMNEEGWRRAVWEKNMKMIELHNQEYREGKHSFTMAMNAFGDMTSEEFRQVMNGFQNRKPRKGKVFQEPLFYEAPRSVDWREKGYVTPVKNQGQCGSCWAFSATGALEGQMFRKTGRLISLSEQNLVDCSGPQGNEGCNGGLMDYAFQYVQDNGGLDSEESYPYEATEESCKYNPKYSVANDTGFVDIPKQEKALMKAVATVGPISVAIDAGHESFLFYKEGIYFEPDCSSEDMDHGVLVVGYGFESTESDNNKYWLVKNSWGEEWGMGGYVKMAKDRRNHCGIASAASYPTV
Cathepsin S, sequence (P25774 whole entry): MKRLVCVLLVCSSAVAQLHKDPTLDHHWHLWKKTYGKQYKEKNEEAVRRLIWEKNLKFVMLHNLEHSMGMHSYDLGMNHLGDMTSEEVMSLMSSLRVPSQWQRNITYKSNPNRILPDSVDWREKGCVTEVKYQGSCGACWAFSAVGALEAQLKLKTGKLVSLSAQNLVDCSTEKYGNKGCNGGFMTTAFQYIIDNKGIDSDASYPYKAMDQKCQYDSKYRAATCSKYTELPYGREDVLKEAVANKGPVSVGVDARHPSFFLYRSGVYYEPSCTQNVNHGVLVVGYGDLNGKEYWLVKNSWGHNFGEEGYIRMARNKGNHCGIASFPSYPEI

Ki (Procathepsin L) [nM] | Ki (Cathepsin S) [nM] | Ki (Cathepsin K) [nM] | Ki (Cathepsin B) [nM] | Ratio Ki (Homo sapiens [1]) | Ratio Ki (Homo sapiens [2]) | Ratio Ki (Homo sapiens [3]) | Activity [4] | Compound
> 22000 | > 22000 | 270 | > 22000 |  |  |  |  | CC(C)C[C@@H](C(=O)NCC#N)N(C)C(=O)c1ccc(-c2noc(-c3cccs3)n2)cc1
940 | 140 | 2.9 | > 22000 | 300 |  |  |  | CC(C)C[C@H](NC(=O)c1ccc(-c2noc(-c3cccs3)n2)cc1)C(=O)NCC#N
4700 | 180 | 34 | > 22000 |  |  |  |  | CC(C)C[C@H](NC(=O)Nc1ccc(-c2noc(-c3cccs3)n2)cc1)C(=O)NCC#N
2.6 | 0.83 | 0.46 | 0.88 |  |  |  |  | CC[C@H](C)[C@H](NC(=O)OCc1ccccc1)C(=O)N(C)N(C)C#N
2 | 0.19 | 0.045 | 2.4 |  |  |  |  | Cc1nc(-c2ccc(NC(=O)N[C@@H](CC(C)C)C(=O)N(C)N(C)C#N)cc2)no1
2700 | 140 | 0.63 | 510 | 4300 | 800 | 200 | Active | CC(C)C[C@@H](C(=O)N(C)N(C)C#N)N(C)C(=O)c1ccc(-c2noc(-c3cccs3)n2)cc1
0.9 | 0.33 | 0.064 | 0.43 |  |  |  |  | CC(C)C[C@H](NC(=O)OCc1ccccc1)C(=O)N(C)N(C)C#N
0.16 | 0.51 | 0.14 | 0.68 |  |  |  |  | CN(C#N)N(C)C(=O)[C@H](Cc1ccccc1)NC(=O)OCc1ccccc1
4.4 | 0.32 | 0.022 | 2.4 |  |  |  |  | CC(C)C[C@H](NC(=O)Nc1ccc(-c2noc(-c3cccs3)n2)cc1)C(=O)N(C)N(C)C#N
1.4 | 0.17 | 0.11 | 2.8 |  |  |  |  | Cc1nc(-c2ccc(CNC(=O)N[C@@H](CC(C)C)C(=O)N(C)N(C)C#N)cc2)no1
0.22 | 0.15 | 0.032 | 0.36 |  |  |  |  | CC(C)C[C@H](NC(=O)c1ccc(-c2noc(-c3cccs3)n2)cc1)C(=O)N(C)N(C)C#N
0.045 | 0.16 | 0.017 | 1.3 |  |  |  |  | CC(C)C[C@H](NC(=O)Nc1ccccc1)C(=O)N(C)N(C)C#N
1.5 | 1.5 | 0.87 | 4.3 |  |  |  |  | CC(C)[C@H](NC(=O)OCc1ccccc1)C(=O)N(C)N(C)C#N
1.1 | 0.16 | 0.072 | 1.3 |  |  |  |  | CC(C)C[C@H](NC(=O)NCc1ccc(-c2noc(-c3cccs3)n2)cc1)C(=O)N(C)N(C)C#N
480 | 9.1 | 33 | 55 |  |  |  |  | C[C@H](NC(=O)OCc1ccccc1)C(=O)N(C)N(C)C#N
0.36 | 0.86 | 0.16 | 0.38 |  |  |  |  | CN(C#N)N(C)C(=O)[C@H](Cc1ccc(O)cc1)NC(=O)OCc1ccccc1
0.39 | 0.2 | 0.011 | 0.65 |  |  |  |  | CC(C)C[C@H](NC(=O)NCc1ccccc1)C(=O)N(C)N(C)C#N
860 | 800 | 260 | 840 |  |  |  |  | CN(C#N)N(C)C(=O)CNC(=O)OCc1ccccc1
0.4 | 0.2 | 0.071 | 0.48 |  |  |  |  | CN(C#N)N(C)C(=O)[C@H](CC1CCCCC1)NC(=O)OCc1ccccc1
